# Where a name gives a salt, the structure may show the parent alone.
# Tests used:
# [1] = Stability of valnemulin in uncompressed feed; format: physicochemical
# [2] = set-up: species or system piglets; details: in vivo, po
# Protocol: Bioavailability studies indicate that the microspherules pass through the stomach in an intact state and release the active ingredient only in the alkaline medium of the intestine. […] After 8-10 hours, the curve then falls off again and approaches zero. In case b), with the microspherules, the increase in active ingredient concentration begins after a delay of about 1-2 hours, reaches its maximum value after about 3-4 hours and, after about 10-12 hours, falls towards zero. […] This new method makes available a form of administration that is gentle on the stomach and that makes oral therapy even more efficient.
structure (smiles),measurement,setting,value
"C=C[C@]1(C)C[C@@H](OC(=O)CSC(C)(C)CNC(=O)[C@H](N)C(C)C)[C@]2(C)[C@H](C)CC[C@]3(CCC(=O)[C@H]32)[C@@H](C)[C@@H]1O [free valnemulin hydrochloride, valnemulin]",loss of valnemulin in uncompressed feed,[1],the same losses
same,time after which the plasma concentration curve falls towards zero,[2],8 to 10 h
same,time at which plasma active ingredient concentration reaches its maximum value,[2],2 to 3 h

# Source: patent US8236851B2, “Microspherules containing a pleuromutilin derivative” (Novartis AG, priority 2001, dated 2012)
